Test results reported in patent US20250387359A1, “COMPOUNDS AND METHODS FOR THE TREATMENT OF PARASITIC INFECTIONS” (THE BOARD OF TRUSTEES OF THE UNIVERSITY OF ILLINOIS, priority 2019, published 2025).

Test: Tolerability in mice
Format: in vivo
Settings: B6.129S7-Ifng (gamma interferon knockout), mouse, in vivo, po, 7 days
Experimental: In vivo testing of the anti-Cryptosporidium effect of CpLDH inhibitors. Gamma interferon knockout mice (B6.129S7-Ifng), 8 weeks of age, were purchased from Charles River, USA. The care and use of the mice was done following the guidelines of protocol number 17024 approved by the University of Illinois at Urbana-Champaign, USA. The animals were allowed to acclimatize for 1 week before experiments commenced. Stock solutions of recombinant CpLDH inhibitors reconstituted in DMSO were diluted in sterile distilled water to reduce the final amount of DMSO in the solution to less than 1% (v/v) before administering them to mice. Prior to testing the anti-Cryptosporidium effect of the inhibitors in mice, the tolerability of each inhibitor was tested by oral gavage using varying dosages (100-2000 mg/kg body weight) of each inhibitor in groups of mice (three mice for each dose) daily for 7 days. Mice were observed daily for signs of toxicity including changes from normal physical activity, respiration, body temperature, feeding, posture, fur condition or occurrence of death. […] An equivalent volume of PBS containing a cocktail of penicillin (100 units/ml), streptomycin (100 μg/ml), chloramphenicol (34 μg/ml) and amphotericin (0.25 μg/ml) was added to the fecal samples and stored at 4° C. until use for quantification of C. parvum genomic DNA load. […]

O=C1c2ccccc2C(=O)c2c(O)c(O)cc(O)c21 [NSC10447]
highest tolerable dose (no toxicity signs): 1000 mg/kg
